One experiment has as its target T1, serotonin transporter (Rattus norvegicus, UniProt P31652).
T1 construct: displace ^3H-paroxetine from male rat cortical membranes; from tissue; host or cells: male rat cortical membranes
The experiment can be described thus: 5-HT transporter affinity: displacement of 3H-paroxetine from male rat cortical membranes. Type of experiment: binding. Particulars: for Ki: displacement of 3H-paroxetine, male rat cortical membranes, read-out: 5-HT Transporter Affinity Ki.

For experiment [1], the target named is T2, cloned human 5-HT1A receptors (Homo sapiens, UniProt P08908).
T2 construct: expressed in transfected cells
T2 sequence (P08908 1-422): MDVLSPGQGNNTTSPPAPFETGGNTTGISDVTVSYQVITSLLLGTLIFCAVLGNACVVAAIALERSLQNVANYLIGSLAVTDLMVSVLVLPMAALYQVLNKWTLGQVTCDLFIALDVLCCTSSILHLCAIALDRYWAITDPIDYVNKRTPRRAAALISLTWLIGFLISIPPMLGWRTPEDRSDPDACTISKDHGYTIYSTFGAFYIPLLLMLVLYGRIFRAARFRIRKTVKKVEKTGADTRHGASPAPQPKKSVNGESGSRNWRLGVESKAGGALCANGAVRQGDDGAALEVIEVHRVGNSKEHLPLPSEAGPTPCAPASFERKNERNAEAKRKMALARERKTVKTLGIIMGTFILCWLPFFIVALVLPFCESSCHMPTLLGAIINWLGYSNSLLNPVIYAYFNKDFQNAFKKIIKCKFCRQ
The experiment can be described thus: 35S-GTPγS binding assay, 5-HT1A function. The following applies: for IC50: antagonist potency, reversal of 8-OH-DPAT, read-out: 5-HT1A Function GTPγS IC50; for EC50: agonist potency. Type of experiment: biochemical.

For experiment [2], the target named is T3, 5-HT1A receptor (Homo sapiens, UniProt P08908).
T3 sequence (P08908 1-422): T2 sequence (P08908 1-422)
The experiment can be described thus: 5-HT1A receptor affinity: displacement of [3H] 8-OH-DPAT. Type of experiment: binding. Details: expressed in transfected cells. Particulars: displacement of [3H] 8-OH-DPAT; CHO cells stably transfected with human 5-HT1A receptors; read-out: 5-HT1A Receptor Affinity Ki.

The target of experiment [3] is T3, 5-HT1A receptor. The experiment is described as follows: cAMP accumulation assay, 5-HT1A function. It counts as cell-based. The following applies: for IC50: cells marked IC50 (antagonist), read-out: 5-HT1A Function cAMP IC50; for Emax / 5-HT1A Function cAMP (Emax): in brackets after EC50 or IC50; for Emax: read-out: 5-HT1A Function cAMP (Emax); for EC50: cells marked EC50 (agonist).

The mark [4] stands for this setting: maximum inhibitory effect, in brackets after IC50, read-out: 5-HT1A Function GTPγS (Imax).
The mark [5] stands for this setting: maximum stimulatory effect, in brackets after EC50, read-out: 5-HT1A Function GTPγS (Emax).

Read-outs that look alike come from different tables or passages of the source.

Data on 18 molecules can be found in patent publication US20050032873A1, “3-Amino chroman and 2-amino tetralin derivatives” (Wyeth, priority 2003, published 2005).

T1 sequence (P31652 whole entry): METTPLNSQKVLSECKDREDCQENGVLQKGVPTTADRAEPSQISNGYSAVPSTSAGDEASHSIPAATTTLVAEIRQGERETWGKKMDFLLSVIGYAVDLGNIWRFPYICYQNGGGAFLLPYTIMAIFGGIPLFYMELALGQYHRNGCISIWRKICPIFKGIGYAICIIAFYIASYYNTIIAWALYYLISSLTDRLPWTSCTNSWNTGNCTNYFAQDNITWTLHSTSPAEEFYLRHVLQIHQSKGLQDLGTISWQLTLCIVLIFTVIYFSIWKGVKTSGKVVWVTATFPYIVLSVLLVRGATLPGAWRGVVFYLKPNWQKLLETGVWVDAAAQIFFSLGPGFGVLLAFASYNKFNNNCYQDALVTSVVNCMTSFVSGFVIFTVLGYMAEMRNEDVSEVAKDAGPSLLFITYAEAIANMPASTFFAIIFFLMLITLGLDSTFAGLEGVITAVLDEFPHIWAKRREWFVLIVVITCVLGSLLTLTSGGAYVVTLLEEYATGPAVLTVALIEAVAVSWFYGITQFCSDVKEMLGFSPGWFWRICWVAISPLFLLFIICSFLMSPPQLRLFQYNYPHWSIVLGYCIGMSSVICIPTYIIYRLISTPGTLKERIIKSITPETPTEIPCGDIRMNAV

`CCNC(=O)c1ccc(F)c2c1CC(N(CCCc1c[nH]c3ccc(F)cc13)C1CCC1)CO2` (centres unmarked) [Compound 60, 3-{cyclobutyl[3-(5-fluoro-1H-indol-3-yl)propyl]amino}-N-ethyl-8-fluorochromane-5-carboxamide]: the inhibition constant Ki was 4.86 nM on serotonin transporter and 17.8 nM at 5-HT1A receptor [2]. Also, the IC50 in experiment [1] is 1400 nM; on 5-HT1A receptor [3] it was 116 nM. The results for the Emax (in experiment [1] (setting [4]); on 5-HT1A receptor [3]) were 100% and 0%, respectively.
Regarding `COc1ccc2[nH]cc(CCCN(C3CCC3)C3COc4c(F)ccc(C(N)=O)c4C3)c2c1` (centres unmarked) [Compound 107, 3-{cyclobutyl[3-(5-methoxy-1H-indol-3-yl)propyl]amino}-8-fluorochromane-5-carboxamide], the inhibitory constant (Ki) stood at 834 nM at serotonin transporter and 1.19 nM at 5-HT1A receptor [2]. The figures for the IC50 (in experiment [1]; at 5-HT1A receptor [3]) were 253 nM and 45.1 nM, respectively. Moreover, the Emax amounted to 100% in experiment [1] (setting [4]) and 0% at 5-HT1A receptor [3].
In the case of `C[C@@H](CCN(C1CCC1)[C@@H]1COc2c(F)ccc(C(N)=O)c2C1)c1c[nH]c2ccc(F)cc12` [Compound 153b, (3S)-3-{cyclobutyl[(3S)-3-(5-fluoro-1H-indol-3-yl)butyl]amino}-8-fluorochromane-5-carboxamide], the Ki at serotonin transporter worked out at 122 nM; at 5-HT1A receptor [2] it was 124 nM. For the same molecule, the figures for the IC50 (in experiment [1]; on 5-HT1A receptor [3]) were 1450 nM and 166 nM, respectively. Also, the Emax in experiment [1] (setting [4]) is 64%; on 5-HT1A receptor [3], 0%.
For `CCCN(CCCc1c[nH]c2c(Cl)cccc12)C1COc2c(F)ccc(C(N)=O)c2C1` (centres unmarked) [Compound 113, 3-[[3-(7-chloro-1H-indol-3-yl)propyl](propyl)amino]-8-fluorochromane-5-carboxamide], the values for the Ki at serotonin transporter and at 5-HT1A receptor [2] were 51 nM and 2.02 nM, respectively. Also, the values for the half-maximal effective concentration (EC50) (in experiment [1]; on 5-HT1A receptor [3]) were 87.2 nM and 16 nM, respectively. The figures for the Emax (in experiment [1] (setting [5]); at 5-HT1A receptor [3]) were 56% and 91%, respectively.
As to `NC(=O)c1ccc(F)c2c1C[C@@H](N(CC1CC1)CC1CCc3[nH]c4ccc(F)cc4c3C1)CO2` (single isomer, unassigned; (-)) [Compound 178a], the Ki is 347 nM on serotonin transporter and 117 nM at 5-HT1A receptor [2]. For the same molecule, the IC50 was determined as 8400 nM in experiment [1] and 1260 nM on 5-HT1A receptor [3]. The Emax in experiment [1] (setting [4]) turned out to be 100%; at 5-HT1A receptor [3], 0%.
On to `CCCN(CCCc1c[nH]c2ccc(F)cc12)C1CCc2cccc(OC)c2C1` (centres unmarked) [Compound 47, N-[3-(5-fluoro-1H-indol-3-yl)propyl]-N-(8-methoxy-1,2,3,4-tetrahydronaphthalen-2-yl)-N-propylamine], for which the Ki on serotonin transporter turned out to be 2.16 nM; on 5-HT1A receptor [2], 4.12 nM. The concentration giving a half-maximal response (EC50) in experiment [1] was determined as 10.4 nM; at 5-HT1A receptor [3] it was 3.5 nM. Also, the Emax in experiment [1] (setting [5]) was determined as 100%; on 5-HT1A receptor [3] it was 91.5%.
Take `CCCN(C1COc2cccc(OC)c2C1)[C@H]1CC[C@H](c2c[nH]c3ccc(F)cc32)CC1` (relative stereo) [Compound 183, trans-N-[4-(5-fluoro-1H-indol-3-yl)cyclohexyl]-5-methoxy-N-propylchroman-3-amine]: on serotonin transporter (@ 1 μM), the “5-HT Transporter Affinity, % @ 1 μM” value was found to be 53% @ 1 μM. Moreover, the EC50 in experiment [1] came out at 10000 nM; at 5-HT1A receptor [3] it was 302 nM. The Emax is 35% in experiment [1] (setting [5]) and 65.5% on 5-HT1A receptor [3]. Moreover, at 5-HT1A receptor [2], the inhibition constant Ki worked out at 183 nM.
On to `O=C(NC1CC1)c1ccc(F)c2c1CC(N(CCCc1c[nH]c3ccc(F)cc13)C1CCC1)CO2` (centres unmarked) [Compound 64, 3-{cyclobutyl[3-(5-fluoro-1H-indol-3-yl)propyl]amino}-N-cyclopropyl-8-fluorochromane-5-carboxamide], for which the Ki on serotonin transporter was determined as 4.89 nM; at 5-HT1A receptor [2], 19.2 nM. Also, the concentration for half-maximal inhibition (IC50) in experiment [1] was 395 nM; at 5-HT1A receptor [3], 288 nM. The Emax is 90% in experiment [1] (setting [4]) and 0% on 5-HT1A receptor [3].
For the molecule `COc1cccc2c(CCCN(C3CCC3)C3COc4c(F)ccc(C(N)=O)c4C3)c[nH]c12` (centres unmarked) [Compound 102, 3-{cyclobutyl[3-(7-methoxy-1H-indol-3-yl)propyl]amino}-8-fluorochromane-5-carboxamide], the Ki at serotonin transporter was found to be 1110 nM; on 5-HT1A receptor [2], 3.22 nM. Besides, the IC50 turned out to be 557 nM in experiment [1] and 270 nM at 5-HT1A receptor [3]. Further, the Emax in experiment [1] (setting [4]) came out at 100%; on 5-HT1A receptor [3], 0%.
Take `COc1cccc2c1CC(N(CCCc1c[nH]c3ccc(F)cc13)C1CC1)CO2` (centres unmarked) [Compound 41, N-cyclopropyl-N-[3-(5-fluoro-1H-indol-3-yl)propyl]-N-(5-methoxy-3,4-dihydro-2H-chromen-3-yl)amine]: the inhibition constant Ki on serotonin transporter came out at 148 nM; on 5-HT1A receptor [2] it was 57.3 nM. Further, the figures for the EC50 (in experiment [1]; on 5-HT1A receptor [3]) were 3460 nM and 162 nM, respectively. In addition, the Emax in experiment [1] (setting [5]) was 84%; on 5-HT1A receptor [3], 78.5%.
Turning to `CCCN(CCCc1c[nH]c2ccc(F)cc12)C1COc2cccc(C(N)=O)c2C1` (centres unmarked) [Compound 150, 3-[[3-(5-fluoro-1H-indol-3-yl)propyl](propyl)amino]chromane-5-carboxamide], the Ki at serotonin transporter was found to be 18.6 nM; at 5-HT1A receptor [2], 0.93 nM. Also, the 50% effective concentration (EC50) came to 13 nM in experiment [1] and 1.23 nM at 5-HT1A receptor [3]. Further, the Emax came to 74% in experiment [1] (setting [5]) and 100% on 5-HT1A receptor [3].
`COC(=O)c1ccc(F)c2c1C[C@@H](NCCCCc1c[nH]c3ccc(F)cc13)CO2` [Compound 57b, methyl (3R)-8-fluoro-3-{[4-(5-fluoro-1H-indol-3-yl)butyl]amino}chromane-5-carboxylate]: the Ki at serotonin transporter amounted to 12.2 nM; at 5-HT1A receptor [2] it was 19.4 nM. The EC50 in experiment [1] was 641 nM; on 5-HT1A receptor [3], 180 nM. Also, the figures for the Emax (in experiment [1] (setting [5]); at 5-HT1A receptor [3]) were 100% and 93%, respectively.
As to `NC(=O)c1ccc(F)c2c1OCC(N(CCCCc1c[nH]c3ccc(F)cc13)CC1CC1)C2` (centres unmarked) [Compound 125, 3-{(cyclopropylmethyl)[4-(5-fluoro-1H-indol-3-yl)butyl]amino}-5-fluorochromane-8-carboxamide], the Ki at serotonin transporter came out at 6.8 nM; at 5-HT1A receptor [2], 86.5 nM. For the same molecule, the EC50 amounted to 2800 nM in experiment [1] and 367 nM on 5-HT1A receptor [3]. The values for the Emax (in experiment [1] (setting [5]); on 5-HT1A receptor [3]) were 63% and 64%, respectively.
Consider `NC(=O)c1ccc(F)c2c1C[C@H](N(CCCCc1c[nH]c3ccc(F)cc13)C1CCC1)CO2` [Compound 83b, (3S)-3-{cyclobutyl[4-(5-fluoro-1H-indol-3-yl)butyl]amino}-8-fluorochromane-5-carboxamide], for which the Ki at serotonin transporter was 16.9 nM; on 5-HT1A receptor [2] it was 111 nM. For the same molecule, the results for the IC50 (in experiment [1]; at 5-HT1A receptor [3]) were 2500 nM and 5800 nM, respectively. The Emax was found to be 100% in experiment [1] (setting [4]) and 0% at 5-HT1A receptor [3].
Take `CCCN(CCc1coc2c(OC)cccc12)C1COc2c(F)ccc(C(N)=O)c2C1` (centres unmarked) [Compound 158, 8-fluoro-3-[[2-(7-methoxy-1-benzofuran-3-yl)ethyl](propyl)amino]chromane-5-carboxamide]: the figures for the Ki on serotonin transporter and on 5-HT1A receptor [2] were 120 nM and 232 nM, respectively. It took 10600 nM to reach a half-maximal effect in experiment [1] (EC50). Besides, the Emax in experiment [1] (setting [5]) came to 59%; at 5-HT1A receptor [3], 0%.
Turning to `CCCN(CCCc1c[nH]c2ccc(F)cc12)C1CCc2c(F)ccc(OC)c2C1` (single isomer, unassigned; (-)) [Compound 51b, (−)-5-fluoro-N-[3-(5-fluoro-1H-indol-3-yl)propyl]-8-methoxy-N-propyl-1,2,3,4-tetrahydro-2-naphthalenamine], the Ki stood at 1.12 nM on serotonin transporter and 14.2 nM on 5-HT1A receptor [2]. Also, the IC50 was determined as 48 nM in experiment [1] and 50 nM on 5-HT1A receptor [3]. In experiment [1] (setting [4]), the Emax is 46%. The same molecule came in with a 5-HT1A Function cAMP (Emax) on 5-HT1A receptor [3] of 0%.
With `CCCN(CCCc1coc2ccccc12)C1COc2c(F)ccc(C(N)=O)c2C1` (centres unmarked) [Compound 20, 3-[[3-(1-benzofuran-3-yl)propyl](propyl)amino]-8-fluorochromane-5-carboxamide], the Ki amounted to 575 nM at serotonin transporter and 0.37 nM at 5-HT1A receptor [2]. Moreover, the EC50 in experiment [1] stood at 35.7 nM; at 5-HT1A receptor [3] it was 62.2 nM. In addition, the Emax in experiment [1] (setting [5]) stood at 84%; at 5-HT1A receptor [3], 88%.
Regarding `CCN(CC1CCc2[nH]c3ccc(F)cc3c2C1)[C@H]1COc2c(F)ccc(C(N)=O)c2C1` (single isomer, unassigned; (+)) [Compound 176b], the Ki at serotonin transporter amounted to 165 nM; at 5-HT1A receptor [2] it was 24.6 nM. Moreover, the IC50 in experiment [1] turned out to be 827 nM; at 5-HT1A receptor [3] it was 669 nM. Further, the 5-HT1A Function GTPγS (Imax) in experiment [1] (maximum inhibitory effect, in brackets after IC50) was 88%. Also, the 5-HT1A Function cAMP (Emax) at 5-HT1A receptor [3] was 0%.
